Measured values from the supplement of paper PMC11061612.

Experiments:
Experiment in all cases: Bliss excess, mean over the matrix (fraction); higher = more synergy
[1] = system: 23132-87 (Gastric Carcinoma)
Method in brief: (§1)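 Cell lines in DMEM/F12 or RPMI with 10% FBS were plated in 1536-well plates, held 24 hours at 37°C, 5% CO2, then given two-drug dose matrices for 72 hours (DMSO typically 0.2%). Viability was read by CellTiter-Glo 2.0 luminescence and scaled as inhibition from 0 (vehicle wells) to 1 (blank wells). Combination Emax is the second-highest inhibition in the matrix; Bliss excess is observed combination effect minus expected EA + EB − EA·EB, EA and EB being single-agent effects.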

A2058 (Melanoma) = system: A2058 (Melanoma)
Method in brief: as §1

GB-1 (Glioblastoma) = system: GB-1 (Glioblastoma)
Method in brief: as §1

[2] = system: GP5d (Colorectal Carcinoma)
Method in brief: as §1

[3] = system: HCT-15 (Colorectal Carcinoma)
Method in brief: as §1

IST-MES1 (Mesothelioma) = system: IST-MES1 (Mesothelioma)
Method in brief: as §1

[4] = system: L-1236 (Hodgkin's Lymphoma)
Method in brief: as §1

[5] = system: LK-2 (Squamous Cell Lung Carcinoma)
Method in brief: as §1

[6] = system: LXF-289 (Lung Adenocarcinoma)
Method in brief: as §1

[7] = system: MFE-280 (Endometrial Carcinoma)
Method in brief: as §1

[8] = system: MKN45 (Gastric Carcinoma)
Method in brief: as §1

[9] = system: NCI-H23 (Lung Adenocarcinoma)
Method in brief: as §1

[10] = system: NCI-H446 (Small Cell Lung Carcinoma)
Method in brief: as §1

[11] = system: OVMIU (Ovarian Carcinoma)
Method in brief: as §1

[12] = system: PSN1 (Pancreatic Carcinoma)
Method in brief: as §1

[13] = system: RKN (Other Solid Carcinomas)
Method in brief: as §1

SF539 (Glioblastoma) = system: SF539 (Glioblastoma)
Method in brief: as §1

[14] = system: SHP-77 (Small Cell Lung Carcinoma)
Method in brief: as §1

[15] = system: VAL (B-Cell Non-Hodgkin's Lymphoma)
Method in brief: as §1

WM278 (Melanoma) = system: WM278 (Melanoma)
Method in brief: as §1

Compound | Bliss excess [1] | Bliss excess (A2058 (Melanoma)) | Bliss excess (GB-1 (Glioblastoma)) | Bliss excess [2] | Bliss excess [3] | Bliss excess (IST-MES1 (Mesothelioma)) | Bliss excess [4] | Bliss excess [5] | Bliss excess [6] | Bliss excess [7] | Bliss excess [8] | Bliss excess [9] | Bliss excess [10] | Bliss excess [11] | Bliss excess [12] | Bliss excess [13] | Bliss excess (SF539 (Glioblastoma)) | Bliss excess [14] | Bliss excess [15] | Bliss excess (WM278 (Melanoma))
CN(C)CCCOc1ccc(-c2ccc3ncc4c(c3c2)n(C2CCOCC2)c(=O)n4C)cn1 [AZD0156] + C=CCn1c(=O)c2cnc(Nc3ccc(N4CCN(C)CC4)cc3)nc2n1-c1cccc(C(C)(C)O)n1 [AZD1775] (first compound max 1 µM, partner max 1 µM) | 0.0164 | -0.0313 | -0.0219 | -0.0369 | 0.0622 | -0.0624 | -0.0514 | -0.048 | 0.0066 | 0.0145 | -0.0774 | -0.0406 | -0.0399 | -0.0113 | -0.0242 | -0.0683 | -0.0023 | -0.0219 | -0.0082 | -0.0331
CN(C)CCCOc1ccc(-c2ccc3ncc4c(c3c2)n(C2CCOCC2)c(=O)n4C)cn1 [AZD0156] + CCN(CCO)CCCOc1ccc2c(Nc3cc(CC(=O)Nc4cccc(F)c4)[nH]n3)ncnc2c1 [AZD2811] (first compound max 1 µM, 7x7, partner max 1 µM) | -0.025 | -0.0201 | -0.034 | 0.004 | 0.0156 | -0.0439 | -0.0332 | 0.0201 | 0.052 | 0.0072 | 0.0034 | -0.0119 | -0.0587 | -0.0411 | -0.0336 | -0.0417 | -0.0196 | -0.034 | -0.0341 | -0.0259
CN(C)CCCOc1ccc(-c2ccc3ncc4c(c3c2)n(C2CCOCC2)c(=O)n4C)cn1 [AZD0156] + C[C@@H]1COCCN1C2=NC(=NC(=C2)C3(CC3)[S@](=N)(=O)C)C4=C5C=CNC5=NC=C4 [AZD6738] (first compound max 1 µM, 7x7, partner max 10 µM) | 0.0549 | -0.0135 | -0.0132 | 0.0291 | 0.0663 | -0.0679 | -0.0315 | -0.0261 | 0.0318 | -0.0116 | 0.0072 | -0.0218 | 0.0625 | -0.0072 | -0.0202 | -0.0126 | 0.0274 | 0.0535 | -0.0049 | -0.0332
CN(C)CCCOc1ccc(-c2ccc3ncc4c(c3c2)n(C2CCOCC2)c(=O)n4C)cn1 [AZD0156] + O=C(c1cc(Cc2n[nH]c(=O)c3ccccc23)ccc1F)N1CCN(C(=O)C2CC2)CC1 [Olaparib] (first compound max 3 µM, partner max 3 µM) | 0.198 | 0.151 | 0.014 | 0.0682 | 0.007 | -0.0141 | -0.0602 | 0.154 | 0.092 | 0.0591 | -0.0028 | 0.0049 | 0.0788 | 0.06 | 0.0124 | 0.0042 | 0.133 | 0.0544 | 0.141 | 0.0011
C=CCn1c(=O)c2cnc(Nc3ccc(N4CCN(C)CC4)cc3)nc2n1-c1cccc(C(C)(C)O)n1 [AZD1775] + C1CN(CCC1(C(=O)N[C@@H](CCO)C2=CC=C(C=C2)Cl)N)C3=NC=NC4=C3C=CN4 [Capivasertib] (first compound max 3 µM, partner max 3 µM) | -0.0207 | 0.0217 | -0.0211 | -0.0274 | 0.0159 | -0.0056 | -0.097 | -0.0913 | -0.0046 | -0.0055 | -0.0736 | -0.0135 | 0.0213 | -0.0032 | -0.0238 | -0.0476 | -0.0878 | -0.0114 | -0.0252 | -0.0468
C=CCn1c(=O)c2cnc(Nc3ccc(N4CCN(C)CC4)cc3)nc2n1-c1cccc(C(C)(C)O)n1 [AZD1775] + O=C(c1cc(Cc2n[nH]c(=O)c3ccccc23)ccc1F)N1CCN(C(=O)C2CC2)CC1 [Olaparib] (first compound max 1 µM, partner max 10 µM) | -0.0282 | -0.0049 | -0.0537 | 0.0252 | -0.0674 | -0.0409 | -0.0441 | -0.0148 | -0.0247 | -0.0652 | -0.005 | -0.035 | 0.0223 | -0.0135 | -0.0585 | -0.0138 | 0.0258 | -0.0436 | -0.0411 | -0.0312
CCN(CCO)CCCOc1ccc2c(Nc3cc(CC(=O)Nc4cccc(F)c4)[nH]n3)ncnc2c1 [AZD2811] + C=CCn1c(=O)c2cnc(Nc3ccc(N4CCN(C)CC4)cc3)nc2n1-c1cccc(C(C)(C)O)n1 [AZD1775] (first compound max 1 µM, partner max 1 µM) | 0.0208 | -0.0059 | 0.0002 | 0.08 | 0.156 | -0.04 | 0.0198 | -0.0952 | -0.012 | 0.0727 | -0.0302 | -0.0005 | 0.015 | -0.088 | -0.0007 | -0.0017 | 0.0972 | 0.0241 | -0.087 | -0.0199
CCN(CCO)CCCOc1ccc2c(Nc3cc(CC(=O)Nc4cccc(F)c4)[nH]n3)ncnc2c1 [AZD2811] + C[C@@H]1COCCN1C2=NC(=NC(=C2)C3(CC3)[S@](=N)(=O)C)C4=C5C=CNC5=NC=C4 [AZD6738] (first compound max 1 µM, 7x7, partner max 10 µM) | -0.0087 | 0.0067 | -0.009 | -0.0575 | -0.0592 | -0.0613 | -0.0583 | -0.064 | -0.0763 | -0.0223 | -0.0439 | -0.0308 | -0.0514 | -0.0446 | -0.0366 | 0.0009 | -0.0262 | -0.0583 | -0.0336 | 0.0062
CCN(CCO)CCCOc1ccc2c(Nc3cc(CC(=O)Nc4cccc(F)c4)[nH]n3)ncnc2c1 [AZD2811] + O=C(c1cc(Cc2n[nH]c(=O)c3ccccc23)ccc1F)N1CCN(C(=O)C2CC2)CC1 [Olaparib] (first compound max 1 µM, 7x7, partner max 10 µM) | 0.0143 | 0.0093 | -0.0218 | -0.0785 | -0.0009 | -0.0102 | -0.0232 | -0.0329 | 0.0677 | 0.0174 | -0.0434 | 0.0076 | -0.0882 | -0.0509 | -0.0206 | 0.0029 | 0.0434 | -0.0191 | -0.0246 | -0.0107
CN(CCO)CC[C@H](CSc1ccccc1)Nc1ccc(S(=O)(=O)NC(=O)c2ccc(N3CCC([C@@H](O)c4ccccc4-c4ccc(Cl)cc4)CC3)cc2)cc1S(=O)(=O)C(F)(F)F [AZD4320] + C1CN(CCC1(C(=O)N[C@@H](CCO)C2=CC=C(C=C2)Cl)N)C3=NC=NC4=C3C=CN4 [Capivasertib] (first compound max 1 µM, 7x7, partner max 3 µM) | -0.0483 | -0.032 | -0.0274 | -0.0396 | -0.0435 | -0.0371 | -0.0476 | -0.0077 | -0.0904 | 0.0092 | -0.0977 | -0.0273 | 0.0316 | -0.0691 | -0.0264 | -0.0321 | -0.0352 | 0.0185 | 0.0595 | -0.0378
CN(CCO)CC[C@H](CSc1ccccc1)Nc1ccc(S(=O)(=O)NC(=O)c2ccc(N3CCC([C@@H](O)c4ccccc4-c4ccc(Cl)cc4)CC3)cc2)cc1S(=O)(=O)C(F)(F)F [AZD4320] + C=CCn1c(=O)c2cnc(Nc3ccc(N4CCN(C)CC4)cc3)nc2n1-c1cccc(C(C)(C)O)n1 [AZD1775] (first compound max 1 µM, partner max 1 µM) | 0.072 | 0.0066 | -0.0642 | -0.0238 | -0.054 | -0.0274 | 0.0006 | 0.0105 | -0.0252 | 0.0823 |  | 0.0364 | 0.0462 | 0.0324 | -0.0112 | -0.0357 | -0.0518 | 0.0877 | -0.0211 | 0.0846
Cc1c2c(nn1C)CSCc1cc(n(C)n1)CSc1cc(c3ccccc3c1)OCCCc1c(C(=O)O)n(C)c3c-2c(Cl)ccc13 [AZD5991] + CN(C)CCCOc1ccc(-c2ccc3ncc4c(c3c2)n(C2CCOCC2)c(=O)n4C)cn1 [AZD0156] (first compound max 1 µM, 7x7, partner max 1 µM) | -0.0643 | -0.0048 | 0.0075 | -0.0201 | 0.0369 | 0.0029 | 0.0295 | 0.0039 | 0.0472 | -0.0159 | -0.0594 | -0.0201 | 0.052 | -0.0328 |  | 0.0006 | -0.0184 | -0.0033 | -0.0034 | -0.0196
Cc1c2c(nn1C)CSCc1cc(n(C)n1)CSc1cc(c3ccccc3c1)OCCCc1c(C(=O)O)n(C)c3c-2c(Cl)ccc13 [AZD5991] + C[C@@H]1COCCN1C2=NC(=NC(=C2)C3(CC3)[S@](=N)(=O)C)C4=C5C=CNC5=NC=C4 [AZD6738] (first compound max 1 µM, 7x7, partner max 10 µM) | -0.009 | 0.0756 | 0.0116 | 0.002 | 0.0431 |  | 0.104 | 0.0146 | 0.0667 | 0.0388 | -0.0812 | -0.0037 | 0.0708 | -0.0037 | -0.0143 | 0.0098 | -0.0231 | -0.0048 | -0.0898 | 0.0307
Cc1c2c(nn1C)CSCc1cc(n(C)n1)CSc1cc(c3ccccc3c1)OCCCc1c(C(=O)O)n(C)c3c-2c(Cl)ccc13 [AZD5991] + Cc1cc2ncnn2cc1Nc1ncc2c(n1)n(C1CCOCC1)c(=O)n2C [AZD7648] (first compound max 1 µM, 7x7, partner max 10 µM) | -0.0679 | -0.067 | -0.0429 | -0.0338 | -0.0354 | -0.0122 | 0.0299 | 0.0019 | -0.0889 |  | -0.0528 | -0.0431 | 0.0148 | -0.091 | -0.0628 | -0.0151 | 0.0057 | -0.0359 | -0.0356 | -0.0428
